This passage reports IC50 results from patent US20220298138A1, “ENZYME INHIBITORS” (KALVISTA PHARMACEUTICALS LIMITED, priority 2019, published 2022).

Molecules are shown by their SMILES. pIC50: −log10 of the molar value.

The target of this assay is T1, Human Factor XIIa (Homo sapiens, UniProt P00748).
T1 construct: purchased Enzyme Research Laboratories
T1 sequence (P00748 373-615 limits assumed): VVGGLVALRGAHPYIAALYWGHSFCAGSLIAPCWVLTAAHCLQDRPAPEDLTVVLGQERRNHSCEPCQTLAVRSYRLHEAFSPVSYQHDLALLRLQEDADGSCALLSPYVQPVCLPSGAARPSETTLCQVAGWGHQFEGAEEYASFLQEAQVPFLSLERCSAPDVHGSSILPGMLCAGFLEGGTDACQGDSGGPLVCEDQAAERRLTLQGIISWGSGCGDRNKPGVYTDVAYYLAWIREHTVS
The assay can be described thus: Factor XIIa inhibitory activity in vitro (fluorogenic substrate H-DPro-Phe-Arg-AFC). In kind it is biochemical. The following applies: 25° C., class symbols, read-out: Human FXIIa IC50. The method in brief: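 Enzyme incubated at 25° C with fluorogenic substrate H-DPro-Phe-Arg-AFC and a range of compound concentrations. Residual activity taken as initial reaction rate from […], giving IC50.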
Consider `CC(C)(C)OC(=O)N[C@H](CCc1ccccc1)C(=O)N1CCC[C@H]1C(=O)NCc1ccc2c(N)nccc2c1` [Example 17.01], for which the negative-log IC50 (pIC50) was 5.00 to 5.52.

Take `CC(C)N[C@H](CCc1ccccc1)C(=O)NCC(=O)NCc1ccc2c(N)nccc2c1` [Example 6.07]: the negative-log IC50 (pIC50) was 6.00 to 6.55.

As to `Nc1nccc2cc(CNC(=O)[C@H](Cc3ccc(F)c(F)c3)NC(=O)c3cccnc3)ccc12` [Example 0.23], the pIC50 was 4.40 to 5.00. Turning to `C[C@@H]1CCC[C@H](C)N1CC(=O)NCC(=O)NCc1ccc2c(N)nccc2c1` [Example 39.03], the pIC50 was 4.40 to 5.00. For `COc1cc(C(=O)N[C@@H](Cc2ccc(F)c(F)c2)C(=O)NCc2ccc3c(N)nccc3c2)ccc1F` [Example 0.58] the value was 5.00 to 5.52; for `Nc1nccc2cc(CNC(=O)[C@H](Cc3ccc(F)c(F)c3)NC(=O)CN3CCOCC3)ccc12` [Example 3.07], 4.40 to 5.00; for `C[C@@H]1CCC[C@H](C)N1CC(=O)N[C@@H](Cc1csc2ccccc12)C(=O)NCc1ccc2c(N)nccc2c1` [Example 3.10], 7.00 to 7.52. Take `CC(O)[C@H](NC(=O)CN1[C@H](C)CCC[C@@H]1C)C(=O)NCc1ccc2c(N)nccc2c1` (stereo partly drawn) [Example 39.06, (2S)—N-[(1-Aminoisoquinolin-6-yl)methyl]-2-{2-[(2R,6S)-2,6-dimethylpiperidin-1-yl]acetamido}-3-hydroxybutanamide]: the pIC50 is 4.40 to 5.00. For `C[C@H](NC(=O)[C@@H](CCc1ccccc1)NCC(C)(C)C)C(=O)NCc1ccc2[nH]cc(Cl)c2c1` [Example 9.18], the negative logarithm of the IC50 (pIC50) is 6.00 to 6.55. Consider `CCC(C)[C@@H](N)C(=O)N[C@@H](Cc1cccc2ccccc12)C(=O)NCc1ccc2c(N)nccc2c1` (stereo partly drawn) [Example 18.101], for which the pIC50 was 5.52 to 6.00. `CN1CCN(c2cccc(C(=O)N[C@@H](Cc3ccc(F)c(F)c3)C(=O)NCc3ccc4c(N)nccc4c3)c2)CC1` [Example 0.08]: the pIC50 is 5.00 to 5.52. Then `Nc1nccc2cc(CNC(=O)[C@H](Cc3ccc(F)c(F)c3)NC(=O)c3cc(CO)ccn3)ccc12` [Example 0.59], with 5.00 to 5.52; and `Cc1nocc1C(=O)N[C@@H](Cc1ccc(F)c(F)c1)C(=O)NCc1ccc2c(N)nccc2c1` [Example 0.21], with 5.00 to 5.52; and `Nc1nccc2cc(CNC(=O)CNC(=O)[C@H](N)CCc3ccccc3)ccc12` [Example 6.02], with 6.00 to 6.55. For `Nc1nccc2cc(CNC(=O)[C@H](Cc3ccc(F)c(F)c3)NC(=O)CCn3cc(C(F)(F)F)ccc3=O)ccc12` [Example 3.29] the value was 4.40 to 5.00; for `Nc1nccc2cc(CNC(=O)[C@H](Cc3ccc(F)c(F)c3)NC(=O)c3ccn4ncnc4n3)ccc12` [Example 0.93], 5.52 to 6.00. With `N#Cc1ccccc1CN[C@@H](Cc1ccc(F)c(F)c1)C(=O)NCc1ccc2c(N)nccc2c1` [Example 55.03], the pIC50 was 4.40 to 5.00. In the case of `Nc1nccc2cc(CNC(=O)[C@H](Cc3ccc(F)c(F)c3)NC(=O)Cc3cccnc3)ccc12` [Example 3.23], the pIC50 was 4.40 to 5.00.

In the case of `Nc1nccc2cc(CNC(=O)[C@@H]3CCCCN3C(=O)[C@H](N)CCc3ccccc3)ccc12` [Example 17.03], the pIC50 was 5.52 to 6.00. For `Nc1nccc2cc(CNC(=O)[C@H](Cc3ccc(F)c(F)c3)NC(=O)CCc3ccccc3)ccc12` [Example 0.46], the pIC50 was 4.40 to 5.00. On to `Cc1ccc2cc(C(=O)N3CCC(C(=O)NCc4ccc5c(N)nccc5c4)C3)ccc2n1` (stereo not drawn) [Example 32.01], for which the negative-log IC50 (pIC50) was 4.40 to 5.00. For the molecule `C[C@@H]1CCC[C@H](C)N1CC(=O)N[C@@H](CCc1ccccc1)C(=O)NCc1ccc2c(N)nccc2c1` [Example 3.15], the pIC50 is 5.52 to 6.00. As to `C[C@@H]1CCC[C@H](C)N1CC(=O)NC(C)(C)C(=O)NCc1ccc2c(N)nccc2c1` [Example 39.08], the pIC50 is 4.40 to 5.00.

With `C[C@@H]1CCC[C@H](C)N1CC(=O)N1c2ccccc2C[C@H]1C(=O)NCc1ccc2c(N)nccc2c1` [Example 32.04], the pIC50 was 4.40 to 5.00. For the molecule `COc1ccc(CNC(=O)[C@H](Cc2ccc(F)c(F)c2)NC(=O)CN2[C@H](C)CCC[C@@H]2C)cc1Cl` [Example 34.01], the negative logarithm of the IC50 (pIC50) is 4.40 to 5.00. Take `CC(C)c1nc(C(=O)N[C@@H](Cc2ccc(F)c(F)c2)C(=O)NCc2ccc3c(N)nccc3c2)cs1` [Example 0.91]: the pIC50 is 4.40 to 5.00. For `CN(C)[C@H](CCc1ccccc1)C(=O)N[C@@H](Cc1ccc(F)c(F)c1)C(=O)NCc1ccc2c(N)nccc2c1` [Example 0.19], the negative logarithm of the IC50 (pIC50) is 4.40 to 5.00. `Cc1ccc(CN(C)CC(=O)N[C@@H](Cc2ccc(F)c(F)c2)C(=O)NCc2ccc3c(N)nccc3c2)cc1` [Example 3.27]: the pIC50 was 4.40 to 5.00. As to `C[C@@H]1CCC[C@H](C)N1CC(=O)N[C@@H](Cc1ccc(F)c(F)c1)C(=O)NCc1ccc2[nH]ncc2c1` [Example 34.07], the pIC50 was 4.40 to 5.00. On to `CCn1nc(C)cc1C(=O)N[C@@H](Cc1ccc(F)c(F)c1)C(=O)NCc1ccc2c(N)nccc2c1` [Example 0.55], for which the negative logarithm of the IC50 (pIC50) is 4.40 to 5.00.

On to `Nc1nccc2cc(CNC(=O)[C@H](Cc3ccc(F)c(F)c3)NC(=O)c3ccco3)ccc12` [Example 0.78], for which the pIC50 was 5.00 to 5.52.

As for `Nc1nccc2cc(CNC(=O)[C@@H](N)Cc3csc4ccccc34)ccc12` [Example 24.01], the pIC50 was 4.40 to 5.00.

Turning to `CC(C)N1CCC[C@@H]1C(=O)N[C@@H](Cc1ccc(F)c(F)c1)C(=O)NCc1cccc2[nH]ccc12` [Example 44.03], the pIC50 is 4.40 to 5.00. For `Nc1nccc2cc(CNC(=O)[C@H](Cc3ccc(F)c(F)c3)NC(=O)c3ccncc3)ccc12` [Example 0.35] the value was 4.40 to 5.00; for `C[C@@H](C(=O)N[C@@H](Cc1ccc(F)c(F)c1)C(=O)NCc1ccc2c(N)nccc2c1)N(C)C` [Example 5.104], 4.40 to 5.00; for `Nc1nccc2cc(CNC(=O)[C@H](Cc3ccc(F)c(F)c3)NC(=O)c3ccc(F)c(F)c3)ccc12` [Example 0.49], 4.40 to 5.00. For the molecule `Nc1nccc2cc(CNC(=O)[C@H](Cc3ccc(F)c(F)c3)NC(=O)c3cccc(-n4cccn4)c3)ccc12` [Example 0.05], the negative logarithm of the IC50 (pIC50) was 5.00 to 5.52. Take `COc1cncc(C(=O)N[C@@H](Cc2ccc(F)c(F)c2)C(=O)NCc2ccc3c(N)nccc3c2)c1` [Example 0.12]: the pIC50 is 5.00 to 5.52. For `Nc1nccc2cc(CNC(=O)[C@H](Cc3ccc(F)c(F)c3)NC(=O)c3ccccc3N3CCOCC3)ccc12` [Example 0.04], the negative-log IC50 (pIC50) is 4.40 to 5.00. Regarding `Nc1nccc2cc(CNC(=O)[C@H](Cc3ccc(F)c(F)c3)NC(=O)c3cccnn3)ccc12` [Example 0.15], the pIC50 is 5.00 to 5.52. For the molecule `CC(C)N1CCCC[C@@H]1C(=O)N[C@@H](Cc1ccc(F)c(F)c1)C(=O)NCc1ccc2c(N)nccc2c1` [Example 0.02], the negative logarithm of the IC50 (pIC50) was 6.55 to 7.00.

Take `COc1cc(C(=O)N[C@@H](Cc2ccc(F)c(F)c2)C(=O)NCc2ccc3c(N)nccc3c2)on1` [Example 0.32]: the negative logarithm of the IC50 (pIC50) was 5.00 to 5.52.

Take `C[C@H](NC(=O)CN1[C@H](C)CCC[C@@H]1C)C(=O)NCc1ccc2c(N)nccc2c1` [Example 39.02]: the negative-log IC50 (pIC50) is 5.00 to 5.52.

Turning to `COc1ccc(OCCC(=O)N[C@@H](Cc2ccc(F)c(F)c2)C(=O)NCc2ccc3c(N)nccc3c2)cc1` [Example 20.01], the negative-log IC50 (pIC50) is 4.40 to 5.00.

In the case of `C[C@@H]1CCC[C@H](C)N1CC(=O)N[C@@H](Cc1cccc(Cl)c1)C(=O)NCc1ccc2c(N)nccc2c1` [Example 3.13], the pIC50 is 6.55 to 7.00.

`CC(C)N1CCC[C@@H]1C(=O)N[C@@H](Cc1ccc(F)c(F)c1)C(=O)NC1CCN(c2ccncc2)CC1` [Example 44.02]: the negative logarithm of the IC50 (pIC50) is 4.40 to 5.00. For `Nc1nccc2cc(CNC(=O)[C@H](Cc3ccc(F)c(F)c3)NC(=O)c3ccsc3)ccc12` [Example 0.77] the value was 4.40 to 5.00; for `Nc1nccc2cc(CNC(=O)[C@H](Cc3ccc(F)c(F)c3)NC(=O)c3nccc4ccccc34)ccc12` [Example 0.80], 4.40 to 5.00; for `C[C@@H]1CCC[C@H](C)N1CC(=O)N[C@@H](Cc1ccc(F)c(F)c1)C(=O)NCc1ccc2[nH]ccc2c1` [Example 34.05], 4.40 to 5.00. Consider `CN1CCC(C(=O)N[C@@H](Cc2ccc(F)c(F)c2)C(=O)NCc2ccc3c(N)nccc3c2)CC1` [Example 0.43], for which the pIC50 is 5.00 to 5.52. On to `Nc1nccc2cc(CNC(=O)[C@H](Cc3ccc(F)c(F)c3)NC(=O)CCc3[nH]nc4c3CCCC4)ccc12` [Example 20.10], for which the negative-log IC50 (pIC50) is 4.40 to 5.00. As to `CN(C)CC(=O)N[C@@H](Cc1ccc(F)c(F)c1)C(=O)NCc1ccc2c(N)nccc2c1` [Example 3.03], the pIC50 was 5.52 to 6.00.

Consider `N#Cc1ccc(C(=O)N[C@@H](Cc2ccc(F)c(F)c2)C(=O)NCc2ccc3c(N)nccc3c2)nc1` [Example 0.11], for which the pIC50 is 4.40 to 5.00.

Regarding `CCC(C)[C@H](C(=O)NCC(=O)NCc1ccc2c(N)nccc2c1)N(C)C` (stereo partly drawn) [Example 18.103], the negative logarithm of the IC50 (pIC50) is 4.40 to 5.00. Regarding `Nc1nccc2cc(CNC(=O)[C@H](Cc3ccc(F)c(F)c3)NC(=O)CN3CCOc4ccccc4C3)ccc12` [Example 3.33], the negative-log IC50 (pIC50) is 4.40 to 5.00.

With `Nc1nccc2cc(CNC(=O)[C@H](Cc3ccc(F)c(F)c3)NC(=O)c3cccc(N4CCCC4=O)c3)ccc12` [Example 0.81], the pIC50 was 5.00 to 5.52. In the case of `C[C@@H]1CCC[C@H](C)N1CC(=O)N[C@@H](Cc1ccc(F)c(F)c1)C(=O)NCc1ccc2c(cnn2C)c1` [Example 34.08], the pIC50 was 4.40 to 5.00. For `Nc1nccc2cc(CNC(=O)[C@H](Cc3ccc(F)c(F)c3)NC(=O)CN3CCCC3)ccc12` [Example 3.41], the pIC50 is 5.52 to 6.00. On to `C[C@@H]1CCC[C@H](C)N1CC(=O)N[C@H](CC(=O)NCc1ccc2c(N)nccc2c1)Cc1ccccc1` [Example 39.04], for which the pIC50 was 4.40 to 5.00.

With `Cc1cnc(C(=O)N[C@@H](Cc2ccc(F)c(F)c2)C(=O)NCc2ccc3c(N)nccc3c2)cn1` [Example 0.22], the pIC50 was 5.00 to 5.52.

For orientation: pIC50 means −log10 of the IC50, conventionally taken in molar units.
